Assays:
[1] = biological target: T1, α2b (Homo sapiens, UniProt P18089); experiment: Binding at cloned human α2b adrenergic receptor
T1 sequence (P18089 1-450): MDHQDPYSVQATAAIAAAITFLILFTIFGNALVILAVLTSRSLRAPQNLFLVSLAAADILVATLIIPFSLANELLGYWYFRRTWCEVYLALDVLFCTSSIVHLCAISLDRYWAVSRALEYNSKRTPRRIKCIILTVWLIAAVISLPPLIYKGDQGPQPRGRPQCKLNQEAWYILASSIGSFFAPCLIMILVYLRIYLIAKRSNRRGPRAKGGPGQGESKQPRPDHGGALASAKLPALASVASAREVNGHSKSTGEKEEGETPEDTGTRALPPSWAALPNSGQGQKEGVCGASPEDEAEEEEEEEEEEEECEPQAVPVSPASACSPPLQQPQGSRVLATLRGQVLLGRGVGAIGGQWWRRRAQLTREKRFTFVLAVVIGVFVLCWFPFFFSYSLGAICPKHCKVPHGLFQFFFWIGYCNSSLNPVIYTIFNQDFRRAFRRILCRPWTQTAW

[2] = biological target: T2, D3 (Homo sapiens, UniProt P35462); experiment: Binding at cloned human dopamine D3 receptor
T2 construct: expressed in transfected cells; host or cells: COS-7
T2 sequence (P35462 whole entry): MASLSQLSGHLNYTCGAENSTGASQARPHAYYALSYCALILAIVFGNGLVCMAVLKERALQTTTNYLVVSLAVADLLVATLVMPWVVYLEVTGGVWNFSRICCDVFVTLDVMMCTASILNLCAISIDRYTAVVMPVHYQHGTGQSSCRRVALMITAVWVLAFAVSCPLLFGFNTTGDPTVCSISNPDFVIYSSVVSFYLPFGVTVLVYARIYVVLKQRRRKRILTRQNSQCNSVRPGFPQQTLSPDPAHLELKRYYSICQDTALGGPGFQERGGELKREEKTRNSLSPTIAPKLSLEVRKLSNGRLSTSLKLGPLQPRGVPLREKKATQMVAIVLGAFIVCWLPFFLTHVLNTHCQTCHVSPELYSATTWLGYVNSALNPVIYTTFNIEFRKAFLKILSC

[3] = biological target: 5HT1a (Homo sapiens, UniProt P08908); experiment: Binding at cloned human 5HT1a receptor
Sequence of 5HT1a (P08908 whole entry): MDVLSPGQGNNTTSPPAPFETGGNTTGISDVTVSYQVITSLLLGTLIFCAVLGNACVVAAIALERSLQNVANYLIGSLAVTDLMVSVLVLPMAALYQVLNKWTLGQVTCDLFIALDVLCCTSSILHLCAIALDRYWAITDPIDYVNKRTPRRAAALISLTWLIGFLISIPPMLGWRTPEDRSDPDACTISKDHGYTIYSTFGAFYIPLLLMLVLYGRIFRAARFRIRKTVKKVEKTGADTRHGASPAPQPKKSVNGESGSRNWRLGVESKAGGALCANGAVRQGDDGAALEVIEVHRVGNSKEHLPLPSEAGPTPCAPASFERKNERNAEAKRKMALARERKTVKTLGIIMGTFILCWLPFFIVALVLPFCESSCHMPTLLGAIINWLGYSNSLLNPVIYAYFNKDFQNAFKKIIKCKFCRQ

[4] = biological target: T3, human Y2 receptor (Homo sapiens, UniProt P49146); experiment: ^125I-PYY binding to membranes, cloned human Y2 receptor; settings: read-out: Binding Affinity Ki vs. ^125I-PYY, Human Receptor Y2; Table 14; stably transfected 293 cells (compound 1 also COS-7)
T3 construct: expressed in transfected cells; host or cells: COS-7 (transient)
T3 sequence (P49146 1-381): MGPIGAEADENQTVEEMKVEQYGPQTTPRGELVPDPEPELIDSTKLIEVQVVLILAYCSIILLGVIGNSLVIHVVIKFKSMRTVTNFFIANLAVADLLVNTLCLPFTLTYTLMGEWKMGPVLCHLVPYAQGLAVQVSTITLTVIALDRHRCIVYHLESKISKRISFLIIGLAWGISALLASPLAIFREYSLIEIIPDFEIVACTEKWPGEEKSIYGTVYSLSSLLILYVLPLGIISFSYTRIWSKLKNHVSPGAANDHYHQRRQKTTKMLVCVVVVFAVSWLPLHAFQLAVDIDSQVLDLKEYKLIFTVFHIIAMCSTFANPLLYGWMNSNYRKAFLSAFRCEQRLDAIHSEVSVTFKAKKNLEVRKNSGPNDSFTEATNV

[5] = biological target: T4, 5HT2 (Homo sapiens, UniProt P28223); experiment: Binding at cloned human 5HT2 receptor
T4 construct: expressed in transfected cells; host or cells: COS-7 (DEAE-dextran); the same paragraph also names the deposited cell line L-NGC-5HT2 (ATCC CRL 10287)
T4 sequence (P28223 whole entry): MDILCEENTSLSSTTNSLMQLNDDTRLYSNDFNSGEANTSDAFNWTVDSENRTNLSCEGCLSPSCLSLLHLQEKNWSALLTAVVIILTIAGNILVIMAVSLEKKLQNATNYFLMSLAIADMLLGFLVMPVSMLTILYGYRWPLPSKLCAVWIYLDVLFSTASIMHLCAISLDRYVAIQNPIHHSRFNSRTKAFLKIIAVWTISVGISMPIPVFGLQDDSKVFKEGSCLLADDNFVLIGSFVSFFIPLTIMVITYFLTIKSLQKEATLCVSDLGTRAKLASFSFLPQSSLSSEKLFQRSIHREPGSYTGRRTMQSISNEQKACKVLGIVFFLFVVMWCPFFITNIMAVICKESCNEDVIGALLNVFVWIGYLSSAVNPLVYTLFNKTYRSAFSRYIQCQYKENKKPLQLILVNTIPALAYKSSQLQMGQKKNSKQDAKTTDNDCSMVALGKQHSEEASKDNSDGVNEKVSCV
Procedure: Human 5HT2 Receptor: The coding sequence of the human 5HT2 receptor was obtained from a human brain cortex cDNA library, and cloned into the cloning site of pcEXV-3 eukaryotic expression vector. […] Nonspecific binding was defined by the addition of 10 μM mianserin.

[6] = biological target: T5, α1d (Homo sapiens, UniProt P25100); experiment: Binding at cloned human α1d adrenergic receptor
T5 sequence (P25100 1-572): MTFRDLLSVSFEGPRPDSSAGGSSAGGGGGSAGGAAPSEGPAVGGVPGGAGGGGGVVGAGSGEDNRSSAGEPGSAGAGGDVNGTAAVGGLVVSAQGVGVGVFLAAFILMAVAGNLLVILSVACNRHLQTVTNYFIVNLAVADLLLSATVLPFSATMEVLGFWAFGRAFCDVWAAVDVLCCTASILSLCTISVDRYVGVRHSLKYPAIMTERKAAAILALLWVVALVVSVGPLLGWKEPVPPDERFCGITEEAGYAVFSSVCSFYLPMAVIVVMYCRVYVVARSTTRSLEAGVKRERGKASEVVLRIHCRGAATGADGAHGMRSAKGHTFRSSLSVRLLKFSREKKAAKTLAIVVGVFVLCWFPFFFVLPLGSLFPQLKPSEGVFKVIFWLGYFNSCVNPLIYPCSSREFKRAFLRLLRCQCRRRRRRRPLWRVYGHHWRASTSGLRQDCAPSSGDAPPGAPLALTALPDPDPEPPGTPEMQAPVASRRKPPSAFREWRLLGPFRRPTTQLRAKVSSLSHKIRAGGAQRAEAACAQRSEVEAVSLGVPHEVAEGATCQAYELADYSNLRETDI

[7] = biological target: T6, α1b (Homo sapiens, UniProt P35368); experiment: Binding at cloned human α1b adrenergic receptor
T6 sequence (P35368 1-520): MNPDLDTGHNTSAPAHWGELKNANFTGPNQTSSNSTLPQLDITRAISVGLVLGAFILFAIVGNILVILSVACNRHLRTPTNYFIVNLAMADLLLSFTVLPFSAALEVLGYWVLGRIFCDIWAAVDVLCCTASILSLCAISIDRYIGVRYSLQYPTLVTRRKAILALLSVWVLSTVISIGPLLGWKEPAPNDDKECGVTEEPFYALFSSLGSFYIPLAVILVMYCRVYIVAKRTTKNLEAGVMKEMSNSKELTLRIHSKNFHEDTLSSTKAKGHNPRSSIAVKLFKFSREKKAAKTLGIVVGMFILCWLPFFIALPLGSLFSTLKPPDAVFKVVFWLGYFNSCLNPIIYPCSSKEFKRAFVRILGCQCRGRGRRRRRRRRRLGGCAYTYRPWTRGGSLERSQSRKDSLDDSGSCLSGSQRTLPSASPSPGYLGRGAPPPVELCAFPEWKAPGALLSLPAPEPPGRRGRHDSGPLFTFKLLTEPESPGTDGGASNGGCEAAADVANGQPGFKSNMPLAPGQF

[8] = biological target: T7, 5HT1Dβ (Homo sapiens, UniProt P28222); experiment: Binding at cloned human 5HT1Dβ receptor
T7 construct: expressed in transfected cells; host or cells: LM(tk-), line Ltk-11 (ATCC CRL 10422)
T7 sequence (P28222 whole entry): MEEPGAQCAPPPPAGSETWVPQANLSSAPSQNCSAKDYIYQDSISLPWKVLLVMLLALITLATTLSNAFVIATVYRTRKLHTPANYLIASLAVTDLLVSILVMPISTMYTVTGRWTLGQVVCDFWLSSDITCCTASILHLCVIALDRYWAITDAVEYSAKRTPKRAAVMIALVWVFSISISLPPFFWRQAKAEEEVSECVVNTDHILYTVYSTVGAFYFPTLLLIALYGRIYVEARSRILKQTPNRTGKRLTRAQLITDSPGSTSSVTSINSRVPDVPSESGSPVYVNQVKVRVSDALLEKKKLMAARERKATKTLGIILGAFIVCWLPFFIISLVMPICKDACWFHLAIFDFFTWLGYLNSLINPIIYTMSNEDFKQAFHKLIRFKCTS
Procedure: The cell line for the 5HT1Dα receptor, designated as Ltk-8-30-84, was deposited on Apr. […] The cell for the 5HT1Dβ receptor, designated as Ltk-11, was deposited on Apr. […] Membrane preparations comprising these receptors were prepared as described below, and suspended in 50 mM Tris-HCl buffer (pH 7.4 at 37° C.) containing 10 mM MgCl2, 0.2 mM EDTA, 10 μM pargyline, and 0.1% ascorbate. The binding of compounds was determined in competition binding assays by incubation for 30 minutes at 37° C. in the presence of 5 nM [^3H]serotonin. Nonspecific binding was determined in the presence of 10 μM serotonin.

[9] = biological target: T8, α2c (Homo sapiens, UniProt P18825); experiment: Binding at cloned human α2c adrenergic receptor; settings: cloned human receptor
T8 sequence (P18825 1-462): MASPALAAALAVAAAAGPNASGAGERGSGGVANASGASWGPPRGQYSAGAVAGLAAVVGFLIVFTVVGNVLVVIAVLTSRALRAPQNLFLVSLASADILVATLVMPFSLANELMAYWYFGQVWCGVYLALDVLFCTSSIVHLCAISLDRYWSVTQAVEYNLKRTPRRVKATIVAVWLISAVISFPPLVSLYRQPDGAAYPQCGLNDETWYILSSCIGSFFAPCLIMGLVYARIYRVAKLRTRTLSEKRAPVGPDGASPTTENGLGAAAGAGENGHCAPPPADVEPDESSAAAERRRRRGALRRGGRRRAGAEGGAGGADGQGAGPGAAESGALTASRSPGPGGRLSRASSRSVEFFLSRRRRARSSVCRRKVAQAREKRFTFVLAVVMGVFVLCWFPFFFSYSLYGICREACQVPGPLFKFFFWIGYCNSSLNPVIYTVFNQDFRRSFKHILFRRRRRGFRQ

SMILES | pKi α2b [1] | pKi D3 [2] | pKi 5HT1a [3] | Ki [4] [µM] | pKi 5HT2 [5] | pKi α1d [6] | pKi α1b [7] | pKi 5HT1Dβ [8] | pKi α2c [9]
Cl.O=S(=O)(NC[C@H]1CC[C@H](CNCC2CCc3ccccc3C2)CC1)c1cccc2ccccc12 (mixture of isomers) [Compound 19] | 6.58 | 6.69 | 5.54 | 0.955 | 6.55 | 6.90 | 7.35 |  | 
Cl.O=[N+]([O-])c1ccccc1S(=O)(=O)NC[C@H]1CC[C@H](CNCC2CCc3ccccc3C2)CC1 (mixture of isomers) [Compound 20] | 6.96 | 6.35 |  | 7.76 | 5.93 | 7.01 | 7.22 | 5.37 | 7.39
Cl.Cl.Nc1ccccc1S(=O)(=O)NC[C@H]1CC[C@H](CNCC2CCc3ccccc3C2)CC1 (mixture of isomers) [Compound 22] | 6.43 |  | 6.56 | 7.57 | 5.99 | 6.80 | 6.98 | 5.41 | 7.15

From US6713265B1 (Synaptic Pharmaceutical Corporation, priority 1999, dated 2004)
